Results taken from patent publication US20070128217A1 (priority 2003, published 2007).

Legend:
[1] = tested on: antibodies in sera from SARS patients (sera 1a, 1b, 2, 6, 37, 62, London, SARS-yellow, SARS-green); assay type: binding, human; parameters: Binding of serum 6 to linear peptides of protein X1 of SARS-CoV Urbani / Binding of serum 37 to linear peptides of protein X1 of SARS-CoV Urbani / Binding of serum 6 to looped/cyclic peptide (PEPSCAN-ELISA) / Binding of serum 37 to looped/cyclic peptide (PEPSCAN-ELISA) / Binding of serum 37 to looped/cyclic peptides of protein X1 of SARS-CoV Urbani / Binding of serum 6 to linear peptides of protein X2 / Binding of serum 37 to linear peptides of protein X2 / Binding of serum 37 to looped/cyclic peptides of protein X2 of SARS-CoV Urbani / Binding of serum 6 to linear peptides of protein M of SARS-CoV Urbani / Binding of serum 37 to linear peptides of protein M of SARS-CoV Urbani / Binding of serum 6 to looped/cyclic peptides of protein M of SARS-CoV Urbani / Binding of serum 37 to looped/cyclic peptides of protein M of SARS-CoV Urbani / Binding of serum 6 to linear peptides of protein X3 of SARS-CoV Urbani / Binding of serum 37 to linear peptides of protein X3 of SARS-CoV Urbani / Binding of serum 37 to looped/cyclic peptides of protein X3 of SARS-CoV Urbani / Binding of serum 6 to linear peptides of protein X4 of SARS-CoV Urbani / Binding of serum 37 to linear peptides of protein X4 of SARS-CoV Urbani / Binding of serum 37 to looped/cyclic peptides of protein X4 of SARS-CoV Urbani / Binding of serum 6 to linear peptides of protein X5 of SARS-CoV Urbani / Binding of serum 37 to linear peptides of protein X5 of SARS-CoV Urbani / Binding of serum 37 to looped/cyclic peptides of protein X5 of SARS-CoV Urbani / Binding of serum 6 to linear peptides of protein N of SARS-CoV Urbani / Binding of serum 37 to linear peptides of protein N of SARS-CoV Urbani / Binding of serum 6 to linear peptide (PEPSCAN-ELISA) / Binding of serum 1a to looped/cyclic peptides of protein N of SARS-CoV Urbani / Binding of serum 1b to looped/cyclic peptides of protein N of SARS-CoV Urbani / Binding of serum 2 to looped/cyclic peptides of protein N of SARS-CoV Urbani / Binding of serum 6 to looped/cyclic peptides of protein N of SARS-CoV Urbani / Binding of serum 37 to looped/cyclic peptides of protein N of SARS-CoV Urbani / Binding of serum 62 to looped/cyclic peptides of protein N of SARS-CoV Urbani / Binding of serum London to looped/cyclic peptides of protein N of SARS-CoV Urbani / Binding of serum SARS-green to looped/cyclic peptides of protein N of SARS-CoV Urbani: unit not given here
[2] = tested on: control sera (pooled serum of ten healthy LUMC hospital workers; commercial negative donor pooled serum from the Dutch bloodbank); assay type: binding, human; parameters: Binding of Control serum LUMC to linear peptides / Binding of Control serum Blood-bank to linear peptides / Binding of Control serum LUMC to looped peptides / Binding of Control Serum Blood-Bank to Looped peptides / Binding of Control serum LUMC to linear peptides of the protein M of SARS-CoV Urbani / Binding of Control serum Blood-bank to linear peptides of the protein M of SARS-CoV Urbani / Binding of Control serum LUMC to looped peptides of the protein M of SARS-CoV Urbani / Binding of Control Serum Blood-Bank to Looped peptides of the protein M of SARS-CoV Urbani: unit not given here
[3] = tested on: rabbit serum obtained by immunizing a rabbit with the SARS-CoV strain Frankfurt 1; assay type: binding; parameters: Binding of a rabbit serum to linear peptides / Binding of a rabbit serum to looped peptides / Rabbit serum linear peptides / Rabbit serum looped peptides / Binding of a rabbit serum to linear peptides of protein N of SARS-CoV Urbani (Rabbit serum linear peptides) / Binding of a rabbit serum to looped/cyclic peptides of protein N of SARS-CoV Urbani (Rabbit serum looped peptides): unit not given here

GYFTEVYYQLESTQI
Binding of serum 1a to linear peptides of protein X1 of SARS-CoV Urbani [1]: 0.7 | Binding of serum 1a to looped/cyclic peptides of protein X1 of SARS-CoV Urbani [1]: 0.6 | Binding of serum 1b to linear peptides of protein X1 of SARS-CoV Urbani [1]: 0.5 | Binding of serum 1b to looped/cyclic peptides of protein X1 of SARS-CoV Urbani [1]: 0.5 | Binding of serum 2 to linear peptides of protein X1 of SARS-CoV Urbani [1]: 0.5 | Binding of serum 2 to looped/cyclic peptides of protein X1 of SARS-CoV Urbani [1]: 0.5 | Binding of serum 6 to linear peptides of protein X1 of SARS-CoV Urbani [1]: 0.4 | Binding of serum 6 to looped/cyclic peptides of protein X1 of SARS-CoV Urbani [1]: 0.4 | Binding of serum 37 to linear peptides of protein X1 of SARS-CoV Urbani [1]: 0.6 | Binding of serum 37 to looped/cyclic peptides of protein X1 of SARS-CoV Urbani [1]: 0.6 | Binding of serum 62 to linear peptides of protein X1 of SARS-CoV Urbani [1]: 0.5 | Binding of serum 62 to looped/cyclic peptides of protein X1 of SARS-CoV Urbani [1]: 0.6 | Binding of serum London to linear peptides of protein X1 of SARS-CoV Urbani [1]: 0.3 | Binding of serum London to looped/cyclic peptides of protein X1 of SARS-CoV Urbani [1]: 0.2 | Binding of serum SARS-green to linear peptides of protein X1 of SARS-CoV Urbani [1]: 0.3 | Binding of serum SARS-green to looped/cyclic peptides of protein X1 of SARS-CoV Urbani [1]: 0.4 | Binding of serum SARS-yellow to linear peptides of protein X1 of SARS-CoV Urbani [1]: 0.4 | Binding of serum SARS-yellow to looped/cyclic peptides of protein X1 of SARS-CoV Urbani [1]: 0.4 | Binding of Control Serum Blood-Bank to Looped peptides [2]: 0.6 | Binding of Control serum Blood-bank to linear peptides [2]: 0.4 | Binding of Control serum LUMC to linear peptides [2]: 0.4 | Binding of Control serum LUMC to looped peptides [2]: 0.7 | Binding of a rabbit serum to linear peptides [3]: 0.1 | Binding of a rabbit serum to looped peptides [3]: 0.5

VSTNLCTHSFRKKQV
Binding of serum 1a to looped/cyclic peptides of protein X2 of SARS-CoV Urbani [1]: 0.5 | Binding of serum 1b to looped/cyclic peptides of protein X2 of SARS-CoV Urbani [1]: 0.3 | Binding of serum 2 to looped/cyclic peptides of protein X2 of SARS-CoV Urbani [1]: 0.6 | Binding of serum 6 to looped/cyclic peptides of protein X2 of SARS-CoV Urbani [1]: 0.5 | Binding of serum 37 to looped/cyclic peptides of protein X2 of SARS-CoV Urbani [1]: 0.5 | Binding of serum 62 to looped/cyclic peptides of protein X2 of SARS-CoV Urbani [1]: 0.6 | Binding of serum London to looped/cyclic peptides of protein X2 of SARS-CoV Urbani [1]: 0.1 | Binding of serum SARS-green to looped/cyclic peptides of protein X2 of SARS-CoV Urbani [1]: 0.3 | Binding of serum SARS-yellow to looped/cyclic peptides of protein X2 of SARS-CoV Urbani [1]: 0.4 | Recognition of the peptide by sera of SARS-CoV infected individuals, and form (linear, looped/cyclic) in which it is recognized [1]: recognized in linear form | Binding of Control Serum Blood-Bank to Looped peptides [2]: 0.5 | Binding of Control serum Blood-bank to linear peptides [2]: 0.8 | Binding of Control serum LUMC to linear peptides [2]: 0.6 | Binding of Control serum LUMC to looped peptides [2]: 0.7 | Binding of a rabbit serum to linear peptides [3]: 0.3 | Binding of a rabbit serum to looped peptides [3]: 0.2

ILFLTLIVFTSCELY
Binding of serum 1a to linear peptides of protein X4 of SARS-CoV Urbani [1]: 0.7 | Binding of serum 1a to looped/cyclic peptides of protein X4 of SARS-CoV Urbani [1]: 0.7 | Binding of serum 1b to linear peptides of protein X4 of SARS-CoV Urbani [1]: 0.6 | Binding of serum 1b to looped/cyclic peptides of protein X4 of SARS-CoV Urbani [1]: 0.4 | Binding of serum 2 to linear peptides of protein X4 of SARS-CoV Urbani [1]: 0.5 | Binding of serum 2 to looped/cyclic peptides of protein X4 of SARS-CoV Urbani [1]: 0.7 | Binding of serum 6 to linear peptides of protein X4 of SARS-CoV Urbani [1]: 0.5 | Binding of serum 6 to looped/cyclic peptides of protein X4 of SARS-CoV Urbani [1]: 0.6 | Binding of serum 37 to linear peptides of protein X4 of SARS-CoV Urbani [1]: 0.7 | Binding of serum 37 to looped/cyclic peptides of protein X4 of SARS-CoV Urbani [1]: 0.7 | Binding of serum 62 to linear peptides of protein X4 of SARS-CoV Urbani [1]: 0.7 | Binding of serum 62 to looped/cyclic peptides of protein X4 of SARS-CoV Urbani [1]: 0.7 | Binding of serum London to linear peptides of protein X4 of SARS-CoV Urbani [1]: 0.6 | Binding of serum London to looped/cyclic peptides of protein X4 of SARS-CoV Urbani [1]: 0.3 | Binding of serum SARS-green to linear peptides of protein X4 of SARS-CoV Urbani [1]: 0.6 | Binding of serum SARS-green to looped/cyclic peptides of protein X4 of SARS-CoV Urbani [1]: 0.4 | Binding of serum SARS-yellow to linear peptides of protein X4 of SARS-CoV Urbani [1]: 0.4 | Binding of serum SARS-yellow to looped/cyclic peptides of protein X4 of SARS-CoV Urbani [1]: 0.6 | Binding of Control Serum Blood-Bank to Looped peptides [2]: 0.7 | Binding of Control serum Blood-bank to linear peptides [2]: 0.6 | Binding of Control serum LUMC to linear peptides [2]: 0.7 | Binding of Control serum LUMC to looped peptides [2]: 0.8 | Rabbit serum linear peptides [3]: 0.7 | Rabbit serum looped peptides [3]: 0.2
